Source: patent US20240376436A1, “COMPOSITIONS AND METHODS FOR BIASING THE POLARITY OF ORGANOIDS” (STEMCELL TECHNOLOGIES CANADA INC., priority 2021, published 2024)

How the values were obtained:
[1] = test system: apical-out organoids formed from human bronchial epithelial cells; assay: Counting ciliated cells among dissociated apical-out airway organoids; assay type: cell-based; settings: FIG. 3; for percentage of ciliated cells: first donor, highest concentrations of the titrated inhibitor in the organoid medium
Method: Cells were cultured and dissociated in accordance with Example 1, and seeded into Aggrewell™ 400 plates (STEMCELL Technologies) that were prepared in accordance with Example 2. Aggregates were generated by seeding roughly 1.2×10^5 cells per well (100 cells per microwell) of an Aggrewell™ 400 plate. The cells were seeded in 500 μL of apical-out organoid medium comprising a basal medium and an inhibitor of notch signaling. The AggreWell™ plate was centrifuged for 3 min at 100 g in order to sediment the cells to the bottom of the microwell. The plates were then incubated for 24 h to 144 h at 37° C. and 5% CO2.
(§1) After the aggregates were formed and sufficiently matured in accordance with Example 3, 500 μL of fresh apical-out airway organoid medium was added to each well. The aggregates were then resuspended using a P1000 pipette and each well distributed to two wells of a 24-well plate (prepared as described in Example 2). The aggregates were incubated under non-adherent conditions in apical-out airway organoid medium for up to 15 days. A partial medium change was performed every second day.
Apical-out airway organoids formed in accordance with Example 4 were harvested on day 15, transferred to a 15 ml tube, and centrifuged at 150 g for 5 min. The supernatant was removed, and the organoids were washed once with DMEM. The washed organoids were resuspended in ACCUTASE (STEMCELL Technologies) and were incubated for 15 minutes at room temperature, before being dissociated to single cells by pipetting vigorously with a P1000 pipette. The single-cell suspension was diluted 1:1 with trypan blue and was then loaded to a Hemocytometer where the cells were counted manually. At the time the dissociated cells are counted, the number of ciliated cells can also be determined by visual inspection.
In one experiment, apical-out organoids were formed from two donor samples in apical-out media formulated with different concentrations of an inhibitor of notch signaling and an inhibitor of TGFbeta signaling. […]

[2] = test system: apical-out organoids generated from passage 6 pulmonary lineage cells; assay: Imaging of ciliation of apical-out organoids; assay type: cell-based, human; settings: passage 6 cells; medium comprising an inhibitor of TGFbeta signaling and Y-27632; FIG. 7A
Method: as §1
Fully mature organoids, formed in accordance with Example 4, were imaged using a standard microscope camera. For example, the organoids may be imaged using a Leica DMi8 or an EVOS M500.
Representative images of apical-out organoids generated from passage 6 pulmonary lineage cells from a donor are shown in FIG. 7.

Compound | percentage of ciliated cells [1] | emergence of ciliated cells ([1]; second donor, lower concentrations in the organoid medium) | ciliation of organoids (representative images) [2]
C[C@H](NC(=O)Cc1cc(F)cc(F)c1)C(=O)N[C@H](C(=O)OC(C)(C)C)c1ccccc1 [DAPT] | decreased percentage of ciliated cells | – | –
Cc1cccc(-c2[nH]ncc2-c2ccnc3ccccc23)n1 [A77-01] | decreased percentage of ciliated cells | detrimental to the emergence of ciliated cells | –
C[C@@H](N)[C@H]1CC[C@H](C(=O)Nc2ccncc2)CC1 [Y-27632] | – | – | patchy ciliation
